Read-outs that look alike come from different tables or passages of the source.
Tests used:
m1 receptors = biological target: T1, m1 receptors (Rattus norvegicus, UniProt P08482); experiment: PI hydrolysis in CHO cells transfected with m1 receptors; assay type: cell-based; conditions: CHO m1
T1 construct: expressed in transfected cells; host or cells: CHO cells
T1 sequence (P08482 1-460): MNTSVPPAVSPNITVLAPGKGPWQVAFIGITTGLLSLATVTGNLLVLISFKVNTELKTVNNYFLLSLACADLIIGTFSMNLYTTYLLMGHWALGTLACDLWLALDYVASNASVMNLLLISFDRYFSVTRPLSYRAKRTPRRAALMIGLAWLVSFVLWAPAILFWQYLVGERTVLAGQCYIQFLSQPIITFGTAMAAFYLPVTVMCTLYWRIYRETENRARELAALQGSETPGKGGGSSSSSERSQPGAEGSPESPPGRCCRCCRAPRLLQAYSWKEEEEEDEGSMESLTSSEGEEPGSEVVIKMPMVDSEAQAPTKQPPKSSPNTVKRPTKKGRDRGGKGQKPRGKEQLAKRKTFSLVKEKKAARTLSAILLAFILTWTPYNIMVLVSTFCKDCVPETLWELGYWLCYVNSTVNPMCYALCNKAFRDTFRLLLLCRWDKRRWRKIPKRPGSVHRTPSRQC

[1] = biological target: T2, m4 subtype receptors (PC12 cells) (Rattus norvegicus, UniProt P08485); experiment: Inhibition of adenylate cyclase activity in PC12 cells; assay type: cell-based; conditions: PC12 m4; tested at 1mM
T2 construct: endogenous in cells; host or cells: PC12 cells
T2 sequence (P08485 1-478): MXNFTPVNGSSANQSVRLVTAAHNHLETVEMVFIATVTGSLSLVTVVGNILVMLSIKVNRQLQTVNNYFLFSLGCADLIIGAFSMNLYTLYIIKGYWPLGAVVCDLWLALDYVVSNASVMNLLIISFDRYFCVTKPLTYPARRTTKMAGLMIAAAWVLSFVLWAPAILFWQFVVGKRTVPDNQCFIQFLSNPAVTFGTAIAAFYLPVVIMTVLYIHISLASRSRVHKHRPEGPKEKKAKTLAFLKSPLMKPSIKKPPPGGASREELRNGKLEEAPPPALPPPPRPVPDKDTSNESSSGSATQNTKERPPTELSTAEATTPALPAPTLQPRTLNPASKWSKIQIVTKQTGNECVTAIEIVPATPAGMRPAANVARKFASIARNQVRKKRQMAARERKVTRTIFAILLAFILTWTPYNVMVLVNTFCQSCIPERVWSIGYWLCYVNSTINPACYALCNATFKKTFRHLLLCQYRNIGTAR
Procedure: (§1) The new compounds AF150, AF151, AF150(S) and AF125 were assayed for their ability to stimulate PI in CHO cells transfected with m1 and m3 receptors, respectively (Buck and Fraser, loc cit), and in cultured human neuroblastoma cells, line SK-N-SH, which express mainly the m3 subtype, but not the m1 subtype (Pinkas-Kramarski et al, Neurosci. Lett. 188: 335-340, 1990; Luthin et al Mol. Pharmacol. 34: 327-333, 1988). These compounds were also assayed on cultured PC12 cells which express mainly m4 subtype receptors and are coupled to inhibition of AC activity (Pinkas-Kramarski et al, loc cit).
(§2) Stimulation of PI breakdown was assayed using the method described by Stein et al (EMBO J. 7: 3031-3035, 1988), and modulation of AC activity was assayed by the method of Stein et al, loc cit and Pinkas-Kramarski et al (FEBS Lett., 239: 174-178, 1988). […]

muscarinic receptors = experiment: (-)3H-QNB binding to rat cerebral cortex homogenates with and without Cu++ treatment
M1 muscarinic receptor [2] = biological target: T3, M1 muscarinic receptor (Rattus norvegicus, UniProt P08482); experiment: Displacement of 3H-QNB from rat cerebral cortex, 50 mM phosphate buffer; assay type: binding; conditions: for RATIOS c:a: KH2 cerebellum : KH1 cortex (3H-QNB); for % H1 / % L1: cortex, Table 5; for RATIOS b:a: KL1 : KH1 cortex (3H-QNB); for RATIOS d:b: KL2 cerebellum : KL1 cortex (3H-QNB)
T3 sequence (P08482 1-460): T1 sequence (P08482 1-460)

M2 muscarinic receptors = biological target: T4, M2 muscarinic receptors (Rattus norvegicus, UniProt P10980); experiment: Displacement of 3H-QNB from rat cerebellum, 50 mM phosphate buffer; assay type: binding; conditions: for Ki / % H / % H2 / %L / % L2: cerebellum; for RATIOS d:c: KL2 : KH2 cerebellum (3H-QNB)
T4 construct: displacing from rat brain homogenates, cerebellum or frontal cortex; from tissue; host or cells: rat cerebellum homogenates
T4 sequence (P10980 1-466): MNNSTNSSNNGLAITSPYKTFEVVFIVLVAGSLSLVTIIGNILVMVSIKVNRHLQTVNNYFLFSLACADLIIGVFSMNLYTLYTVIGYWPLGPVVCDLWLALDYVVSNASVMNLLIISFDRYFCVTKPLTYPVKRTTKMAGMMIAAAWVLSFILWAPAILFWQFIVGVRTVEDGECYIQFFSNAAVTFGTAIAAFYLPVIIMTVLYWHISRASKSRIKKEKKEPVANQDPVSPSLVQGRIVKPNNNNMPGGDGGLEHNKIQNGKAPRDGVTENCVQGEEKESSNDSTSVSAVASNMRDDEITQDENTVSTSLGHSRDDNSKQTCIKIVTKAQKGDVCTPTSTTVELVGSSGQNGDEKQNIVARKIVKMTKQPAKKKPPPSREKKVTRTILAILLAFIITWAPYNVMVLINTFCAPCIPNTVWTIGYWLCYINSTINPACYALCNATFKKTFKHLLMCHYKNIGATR

M1 muscarinic receptor [3] = biological target: T3, M1 muscarinic receptor; experiment: Displacement of 3H-PZ from rat cerebral cortex, 10 mM phosphate buffer; assay type: binding; parameters: from tissue; host or cells: rat cerebral cortex homogenates; conditions: for RATIOS c:a: KH cerebellum (3H-QNB) : KH cortex (3H-PZ)
[4] = system: rat cerebral cortex synaptosomes; experiment: Synaptosomal 3H-ACh release, basal and K+-evoked; conditions: 0.1 mM
Source text: The effects of AF150 (and for comparison purposes, AF125, MeN-A-343 and oxotremorine) on basal- and K^+-evoked release of ^3H-ACh were studied on synaptosomes prepared from rat cerebral cortex using the methods described in detail by Pittel et al (J. Neurochem., 55: 665-672, 1990). […] On the other hand, the action of AF150 on presynaptic muscarinic receptors, causing an increase in K^+-evoked ACh release, can be considered either as an M2 antagonistic or an M1 agonistic effect. […] The existence of muscarinic autoreceptors that increase ACh release was manifested also in the PNS in smooth muscle preparation (Kilbinger and Nafziger, Naunyn Schmiedebergs Arch. Pharmacol. 328: 304-309, 1985).

M1 muscarinic receptor [5] = biological target: T3, M1 muscarinic receptor; experiment: Displacement of 3H-PZ from cortical binding sites, Tris/Mn buffer, with and without GppNHp; parameters: from tissue; host or cells: rat cerebral cortex homogenates
Source text: The binding of agonists to M1 muscarinic receptors and the effect of guanylyl imidophosphate (GppNHp). Agonists are known to be coupled with guanine nucleotide binding proteins (G proteins).
Non-hydrolyzable guanine nucleotides such as GppNHp dissociate the G protein from the receptor and decrease the affinity of the receptor for agonists but not for antagonists. […] Molec.
Under these conditions agonists of high efficacy ("full agonists") bind directly to the M1 receptor subtype with two affinities. […] The ratio of low and high affinities (KL/KH) of the M1 receptor may predict the relative efficacies of agonists to activate putative M1 receptor-mediated second messenger systems.
KH, KL, %H and %L are the apparent inhibition constants of the tested ligands for the high and low affinity sites, respectively. G is GppNHp (guanylyl imidodiphosphate), and was used in 0.1 mM concentration. Displacement of ^3H-PZ from cortical binding sites was performed in Tris/Mn buffer (pH 7.4) for one hour at 25°C; the buffer included 1 mM EDTA and 2mM Mn^++ ions. […] The binding data were analyzed using a GraphPAD program and were fitted to one or two components. Values are means from 1-3 experiments carried out in triplicates.

[6] = biological target: T5, m3 subtype (SK-N-SH cells) (Homo sapiens, UniProt P20309); experiment: PI hydrolysis in SK-N-SH neuroblastoma cells; assay type: cell-based
T5 construct: endogenous in cells; host or cells: SK-N-SH human neuroblastoma cells
Procedure: as §1, §2

[7] = with Cu++ pretreatment (100 µM, 30 minutes)
[8] = with Cu++ pretreatment (100 µM, 30 minutes), read-out: KL
[9] = without pretreatment, read-out: KH
[10] = without pretreatment, read-out: KL
[11] = 3H-QNB-Binding KH2 (c), Table 5
[12] = 3H-QNB-Binding KL2 (d), Table 5

T5 sequence (P20309 whole entry): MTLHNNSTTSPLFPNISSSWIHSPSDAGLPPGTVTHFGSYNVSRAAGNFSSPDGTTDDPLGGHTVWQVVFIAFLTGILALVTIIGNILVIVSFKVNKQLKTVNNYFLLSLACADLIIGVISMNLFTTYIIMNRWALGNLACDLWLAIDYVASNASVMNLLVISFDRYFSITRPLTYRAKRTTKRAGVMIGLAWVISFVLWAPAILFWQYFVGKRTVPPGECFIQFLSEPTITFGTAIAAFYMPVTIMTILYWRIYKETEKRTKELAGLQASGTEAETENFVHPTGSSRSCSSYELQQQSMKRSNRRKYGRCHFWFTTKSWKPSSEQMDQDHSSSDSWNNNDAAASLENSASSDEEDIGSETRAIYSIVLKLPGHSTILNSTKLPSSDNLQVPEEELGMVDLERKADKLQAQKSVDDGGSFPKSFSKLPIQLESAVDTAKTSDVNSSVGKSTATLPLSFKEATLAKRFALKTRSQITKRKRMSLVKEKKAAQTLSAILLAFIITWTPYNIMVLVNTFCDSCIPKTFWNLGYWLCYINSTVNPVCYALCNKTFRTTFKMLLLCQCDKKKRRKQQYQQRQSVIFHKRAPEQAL

Row | Structure (SMILES) | %H (% of high affinity state) (muscarinic receptors; [7]) [%] | Ki (muscarinic receptors; [8]) [nM] | %H (% of high affinity state) (muscarinic receptors; without pretreatment) [%] | Ki (muscarinic receptors; [9]) [nM] | Ki (muscarinic receptors; [10]) [nM] | RATIOS c:a (M1 muscarinic receptor [2]) | % H1 (M1 muscarinic receptor [2]) [%] | Ki (M2 muscarinic receptors; [11]) [nM] | % H (M2 muscarinic receptors; Table 4) [%] | % H2 (M2 muscarinic receptors; Table 5) [%] | % H (M1 muscarinic receptor [3]) [%] | Ki (M1 muscarinic receptor [3]; 3H-PZ-Binding KH (a)) [nM] | RATIOS c:a (M1 muscarinic receptor [3]) | K+-evoked 3H-ACh release [4] [%] | RATIOS b:a (M1 muscarinic receptor [2]) | RATIOS d:b (M1 muscarinic receptor [2]) | % L1 (M1 muscarinic receptor [2]) [%] | Ki (M2 muscarinic receptors; 3H-QNB-Binding KH (c), Table 4) [nM] | Ki (M2 muscarinic receptors; [12]) [nM] | Ki (M2 muscarinic receptors; 3H-QNB-Binding KL (d), Table 4) [nM] | further results
1 | CC1=NCC2(CCN(C)CC2)S1 [AF150(S), 2-Methyl-spiro(1,3-thiazoline-5,4')-1'-methylpiperidine] |  |  |  |  |  |  |  |  |  |  |  |  |  |  |  |  |  |  |  |  | PI, % of carbachol effect (m1 receptors): 17%; PI (phosphoinositides hydrolysis) (m1 receptors; tested at 1mM): +
2 | C[N+](C)(C)CCOC(N)=O [Carbachol, reference compound] |  |  |  |  |  |  |  |  |  |  |  |  |  |  |  |  |  |  |  |  | AC (adenylate cyclase activity) [1]: +++
3 | C[N+](C)(C)CC#CCOC(=O)Nc1cccc(Cl)c1 [McN-A-343] | 30±7 | 5700 ± 200 | 13±5 | 340 ± 100 | 8500 ± 800 | 1.9 | 100 | 11000 | 100 | 100 | 100 | 3800 | 6.4 | 172 |  |  |  |  |  |  | Ki (muscarinic receptors; with Cu++ pretreatment (100 µM, 30 minutes), read-out: KH): 180 ± 90 nM; Ki (M2 muscarinic receptors; Table 4, read-out: 3H-QNB-Binding KH (c)): 24400 nM; Basal 3H-ACh release [4]: 144%
4 | C[N+](C)(C)CC#CCN1CCCC1=O [Oxotremorine-M, reference compound] |  |  |  |  |  | 0.6 | 26 | 69 | 49 | 49 | 53 | 100 | 0.69 |  | 336 | 0.14 | 74 | 69 | 5200 | 5200 | % H (M1 muscarinic receptor [5]; +G (0.1 mM GppNHp)): 2.7%; %L (M1 muscarinic receptor [5]; +G (0.1 mM GppNHp)): 73%; % H (M1 muscarinic receptor [5]; -G): 53%; %L (M1 muscarinic receptor [5]; -G): 47%; Ki (M1 muscarinic receptor [5]; KH, +G (0.1 mM GppNHp)): 350 nM; Ki (M1 muscarinic receptor [5]; KH, -G (without GppNHp)): 110 nM; Ki (M1 muscarinic receptor [5]; KL, +G (0.1 mM GppNHp)): 4200 nM; Ki (M1 muscarinic receptor [5]; KL, -G): 6700 nM; KL-G / KH-G (M1 muscarinic receptor [5]; ratio of low and high affinities without GppNHp): 61; RATIOS d:c (M2 muscarinic receptors): 75; %L (M2 muscarinic receptors; Table 4): 51%; % L2 (M2 muscarinic receptors; Table 5): 51%; accumulation of inositol-1-phosphate (IP1) stimulated over basal level [6]: 5.24 fold; %L (M1 muscarinic receptor [3]): 47%; RATIOS b:a (M1 muscarinic receptor [3]): 67; Ki (M1 muscarinic receptor [3]; 3H-PZ-Binding KL (b)): 6700 nM; RATIOS d:b (M1 muscarinic receptor [3]; KL cerebellum (3H-QNB) : KL cortex (3H-PZ)): 0.78
5 | O=C1CCCN1CC#CCN1CCCC1 [Oxotremorine] | 51 | 7200 ± 1700 | 32 | 20 ± 5 | 13300 ± 1400 | 0.9 | 13 | 14 | 35 | 35 |  |  |  | 56 | 100 | 0.36 | 87 | 14 | 580 | 580 | %H (% of high affinity state) (muscarinic receptors; with Cu++ pretreatment (100 µM, 30 minutes), listed as 3): 51±7%; %H (% of high affinity state) (muscarinic receptors; without pretreatment, listed as 3): 32±3%; RATIOS d:c (M2 muscarinic receptors): 41; %L (M2 muscarinic receptors; Table 4): 65%; % L2 (M2 muscarinic receptors; Table 5): 65%
